Test results from the CheMixHub viscosity set.
Several values for one entry are separate records, joined by “and”; a condition that tells them apart may be missing. Equal values may be shown once.

Assay: xn = mol fraction of the nth substance listed

CN(CCO)CCO + O
viscosity
Conditions	293.15 K	298.15 K	303.15 K	308.15 K	313.15 K	323.15 K
100 kPa, x1 = 0.131	–	9.324 mPa·s	–	–	–	–
101 kPa, x1 = 0.06	–	–	2.548 mPa·s	–	1.906 mPa·s	–
101 kPa, x1 = 0.1	7.325 mPa·s	–	4.901 mPa·s	–	3.458 mPa·s	2.551 mPa·s
101 kPa, x1 = 0.11	–	–	5.312 mPa·s	–	3.729 mPa·s	2.777 mPa·s
101 kPa, x1 = 0.1991	26.19 mPa·s	–	15.41 mPa·s	–	9.684 mPa·s	6.517 mPa·s
101 kPa, x1 = 0.2985	56.54 mPa·s	–	31.07 mPa·s	–	18.14 mPa·s	11.42 mPa·s
101 kPa, x1 = 0.3975	84.73 mPa·s	–	45.33 mPa·s	–	25.74 mPa·s	15.8 mPa·s
101 kPa, x1 = 0.4963	103.2 mPa·s	–	54.91 mPa·s	–	31.5 mPa·s	18.96 mPa·s
101 kPa, x1 = 0.5949	113.9 mPa·s	–	60.93 mPa·s	–	–	20.85 mPa·s
101 kPa, x1 = 0.6934	115.5 mPa·s	–	62.48 mPa·s	–	35.73 mPa·s	21.72 mPa·s
101 kPa, x1 = 0.7916	113.6 mPa·s	–	61.99 mPa·s	–	35.44 mPa·s	21.95 mPa·s
101 kPa, x1 = 0.8896	109.8 mPa·s	–	59.49 mPa·s	–	35.12 mPa·s	–
101 kPa, x2 = 0.815	–	17.44 mPa·s	–	–	–	–
101 kPa, x2 = 0.9	–	9.66 mPa·s	–	–	–	–
101 kPa, x2 = 0.91	6.35 mPa·s	5.4 mPa·s and 5.25 mPa·s	4.34 mPa·s	–	–	–
101 kPa, x2 = 0.9391	–	3.27 mPa·s	–	–	–	–
101 kPa, x2 = 0.94	3.53 mPa·s	2.99 mPa·s	2.54 mPa·s	–	1.89 mPa·s	1.45 mPa·s
101 kPa, x2 = 0.96	2.264 mPa·s	1.921 mPa·s	1.695 mPa·s	–	1.32 mPa·s	–
101.3 kPa, x1 = 0.02	1.541 mPa·s	1.316 mPa·s	–	–	0.931 mPa·s	0.773 mPa·s
101.3 kPa, x1 = 0.04	2.268 mPa·s	1.924 mPa·s	1.697 mPa·s	–	1.325 mPa·s	1.068 mPa·s
101.3 kPa, x1 = 0.06	3.637 mPa·s	3.036 mPa·s	2.594 mPa·s	–	–	–
101.3 kPa, x1 = 0.09	6.345 mPa·s	5.245 mPa·s	4.325 mPa·s	–	3.107 mPa·s	2.367 mPa·s
101.3 kPa, x1 = 0.1	11.84 mPa·s	9.196 mPa·s	7.437 mPa·s	–	5.101 mPa·s	3.599 mPa·s
101.3 kPa, x1 = 0.2	22.64 mPa·s	17.25 mPa·s	–	–	8.843 mPa·s	6.015 mPa·s
101.3 kPa, x1 = 0.3	37.14 mPa·s	29.03 mPa·s	22.69 mPa·s	–	14.91 mPa·s	9.618 mPa·s
101.3 kPa, x1 = 0.4	71.95 mPa·s	58.29 mPa·s	42.41 mPa·s	–	24.45 mPa·s	14.36 mPa·s
101.3 kPa, x1 = 0.6	101.9 mPa·s	81.67 mPa·s	54.66 mPa·s	–	34.23 mPa·s	19.22 mPa·s
101.33 kPa, x1 = 0.017	–	–	1.137 mPa·s	–	0.907 mPa·s	–
101.33 kPa, x1 = 0.036	2.262 mPa·s	1.941 mPa·s	1.686 mPa·s	–	–	1.051 mPa·s
101.33 kPa, x1 = 0.061	3.69 mPa·s	3.092 mPa·s	–	–	–	–
101.33 kPa, x1 = 0.092	6.452 mPa·s	5.253 mPa·s	4.359 mPa·s	3.671 mPa·s	3.112 mPa·s	2.309 mPa·s
101.33 kPa, x1 = 0.13	11.7 mPa·s	9.208 mPa·s	7.436 mPa·s	6.097 mPa·s	–	3.642 mPa·s

NCCN + O
Conditions	viscosity [mPa·s]
298.15 K, 101 kPa, x1 = 0.044	1.221
298.15 K, 101 kPa, x1 = 0.086	1.932
298.15 K, 101 kPa, x1 = 0.161	4.028
298.15 K, 101 kPa, x1 = 0.194	5.2
298.15 K, 101 kPa, x1 = 0.245	6.69
298.15 K, 101 kPa, x1 = 0.3	8.057
298.15 K, 101 kPa, x1 = 0.33	8.351
298.15 K, 101 kPa, x1 = 0.35	8.258
298.15 K, 101 kPa, x1 = 0.374	7.825
298.15 K, 101 kPa, x1 = 0.387	7.734
298.15 K, 101 kPa, x1 = 0.397	7.379
298.15 K, 101 kPa, x1 = 0.416	7.048
298.15 K, 101 kPa, x1 = 0.441	6.544
298.15 K, 101 kPa, x1 = 0.45	6.374
298.15 K, 101 kPa, x1 = 0.474	6.012
298.15 K, 101 kPa, x1 = 0.502	5.885
298.15 K, 101 kPa, x1 = 0.517	5.667
298.15 K, 101 kPa, x1 = 0.528	5.43
298.15 K, 101 kPa, x1 = 0.55	4.61
298.15 K, 101 kPa, x1 = 0.599	3.684
298.15 K, 101 kPa, x1 = 0.664	3.054
298.15 K, 101 kPa, x1 = 0.699	2.569
298.15 K, 101 kPa, x1 = 0.801	1.94
298.15 K, 101 kPa, x1 = 0.9	1.533
303.15 K, 101.3 kPa, x1 = 0.1138	2.607
303.15 K, 101.3 kPa, x1 = 0.2306	6.369
303.15 K, 101.3 kPa, x1 = 0.3102	7.766
303.15 K, 101.3 kPa, x1 = 0.4116	6.837
303.15 K, 101.3 kPa, x1 = 0.5452	4.416
303.15 K, 101.3 kPa, x1 = 0.6294	3.321
303.15 K, 101.3 kPa, x1 = 0.7296	2.434
303.15 K, 101.3 kPa, x1 = 0.8507	1.789
303.15 K, 101.33 kPa, x1 = 0.05	1.368
303.15 K, 101.33 kPa, x1 = 0.0999	2.291
303.15 K, 101.33 kPa, x1 = 0.15	3.635
303.15 K, 101.33 kPa, x1 = 0.1998	5.292
303.15 K, 101.33 kPa, x1 = 0.2488	6.797
303.15 K, 101.33 kPa, x1 = 0.2749	7.372
303.15 K, 101.33 kPa, x1 = 0.2997	7.678
303.15 K, 101.33 kPa, x1 = 0.3246	7.767
303.15 K, 101.33 kPa, x1 = 0.3488	7.67
303.15 K, 101.33 kPa, x1 = 0.3739	7.384
303.15 K, 101.33 kPa, x1 = 0.3944	7.02
303.15 K, 101.33 kPa, x1 = 0.4542	5.965
308.15 K, 101.3 kPa, x1 = 0.1138	2.203
308.15 K, 101.3 kPa, x1 = 0.2306	5.069
308.15 K, 101.3 kPa, x1 = 0.3102	6.072
308.15 K, 101.3 kPa, x1 = 0.4116	5.411
308.15 K, 101.3 kPa, x1 = 0.5452	3.639
308.15 K, 101.3 kPa, x1 = 0.6294	2.793
308.15 K, 101.3 kPa, x1 = 0.7296	2.01
308.15 K, 101.3 kPa, x1 = 0.8507	1.574
308.15 K, 101.33 kPa, x1 = 0.05	1.208
308.15 K, 101.33 kPa, x1 = 0.0999	1.971
308.15 K, 101.33 kPa, x1 = 0.15	3.059
308.15 K, 101.33 kPa, x1 = 0.1998	4.347
308.15 K, 101.33 kPa, x1 = 0.2488	5.484
308.15 K, 101.33 kPa, x1 = 0.2749	5.92
308.15 K, 101.33 kPa, x1 = 0.2997	6.133
308.15 K, 101.33 kPa, x1 = 0.3246	6.213
313.15 K, 101.3 kPa, x1 = 0.1138	1.911
313.15 K, 101.3 kPa, x1 = 0.2306	4.122
313.15 K, 101.3 kPa, x1 = 0.3102	4.906
313.15 K, 101.3 kPa, x1 = 0.4116	4.41
313.15 K, 101.3 kPa, x1 = 0.5452	3.07
313.15 K, 101.3 kPa, x1 = 0.6294	2.402
313.15 K, 101.3 kPa, x1 = 0.7296	1.842
313.15 K, 101.3 kPa, x1 = 0.8507	1.416
318.15 K, 101.3 kPa, x1 = 0.1138	1.652
318.15 K, 101.3 kPa, x1 = 0.2306	3.388
318.15 K, 101.3 kPa, x1 = 0.3102	3.963
318.15 K, 101.3 kPa, x1 = 0.4116	3.585
318.15 K, 101.3 kPa, x1 = 0.5452	2.574
318.15 K, 101.3 kPa, x1 = 0.6294	2.066
318.15 K, 101.3 kPa, x1 = 0.7296	1.613
318.15 K, 101.3 kPa, x1 = 0.8507	1.258
323.15 K, 101 kPa, x1 = 0.044	0.684
323.15 K, 101 kPa, x1 = 0.086	0.92
323.15 K, 101 kPa, x1 = 0.161	1.549
323.15 K, 101 kPa, x1 = 0.194	1.881
323.15 K, 101 kPa, x1 = 0.245	2.184
323.15 K, 101 kPa, x1 = 0.3	2.551
323.15 K, 101 kPa, x1 = 0.33	2.571
323.15 K, 101 kPa, x1 = 0.35	2.643
323.15 K, 101 kPa, x1 = 0.374	2.423
323.15 K, 101 kPa, x1 = 0.387	2.401
323.15 K, 101 kPa, x1 = 0.397	2.306
323.15 K, 101 kPa, x1 = 0.416	2.291
323.15 K, 101 kPa, x1 = 0.441	2.214
323.15 K, 101 kPa, x1 = 0.45	2.069
323.15 K, 101 kPa, x1 = 0.474	2.058
323.15 K, 101 kPa, x1 = 0.502	1.991
323.15 K, 101 kPa, x1 = 0.517	1.919
323.15 K, 101 kPa, x1 = 0.528	1.907
323.15 K, 101 kPa, x1 = 0.55	1.733
323.15 K, 101 kPa, x1 = 0.599	1.539
323.15 K, 101 kPa, x1 = 0.664	1.32
323.15 K, 101 kPa, x1 = 0.699	1.174
323.15 K, 101 kPa, x1 = 0.801	0.978
323.15 K, 101 kPa, x1 = 0.9	0.847
